From patent publication US9468642B2, “Imidazopyrazines” (BAYER INTELLECTUAL PROPERTY GMBH, priority 2011, dated 2016) come the findings set out here.

The experiment deals with human kinase Mps-1 (Homo sapiens (Human), UniProt P33981). Nature of the experiment: Mps-1 Kinase Assay (TR-FRET). The conditions noted are these: N-terminally GST-tagged human full length recombinant Mps-1; 10 μM ATP; 1 μM peptide substrate; 60 min at 22° C.; read-out: Mps1 IC50. The class given is biochemical. How it is done: The human kinase Mps-1 phosphorylates a biotinylated substrate peptide. Detection of the phosphorylated product is achieved by time-resolved fluorescence resonance energy transfer (TR-FRET) from Europium-labelled anti-phospho-Serine/Threonine antibody as donor to streptavidin labelled with cross-linked allophycocyanin (SA-XLent) as acceptor. Compounds are tested for their inhibition of the kinase activity.
N-terminally GST-tagged human full length recombinant Mps-1 kinase (purchased from Invitrogen, Karslruhe, Germany, cat. no PV4071) was used. As substrate for the kinase reaction a biotinylated peptide of the amino-acid sequence […] (C-terminus in amide form, purchased from Biosynthan GmbH, Berlin) was used.
The concentration of Mps-1 in the assay was adjusted to the activity of the enzyme lot and was chosen appropriate to have the assay in the linear range, typical enzyme concentrations were in the range of about 1 nM (final conc. in the 5 μl assay volume).
The resulting mixture was incubated 1 h at 22° C. to allow the binding of the phosphorylated peptide to the anti-phospho(Ser/Thr)-Europium-antibody. Subsequently the amount of phosphorylated substrate was evaluated by measurement of the resonance energy transfer from the Europium-labelled anti-phospho(Ser/Thr) antibody to the Streptavidin-XLent.
A general note: Time-resolved FRET reads energy transfer from a long-lived donor to a nearby acceptor.

As usually defined, the IC50 is the concentration needed to halve the response being measured.

human kinase Mps-1, sequence (P33981 whole entry): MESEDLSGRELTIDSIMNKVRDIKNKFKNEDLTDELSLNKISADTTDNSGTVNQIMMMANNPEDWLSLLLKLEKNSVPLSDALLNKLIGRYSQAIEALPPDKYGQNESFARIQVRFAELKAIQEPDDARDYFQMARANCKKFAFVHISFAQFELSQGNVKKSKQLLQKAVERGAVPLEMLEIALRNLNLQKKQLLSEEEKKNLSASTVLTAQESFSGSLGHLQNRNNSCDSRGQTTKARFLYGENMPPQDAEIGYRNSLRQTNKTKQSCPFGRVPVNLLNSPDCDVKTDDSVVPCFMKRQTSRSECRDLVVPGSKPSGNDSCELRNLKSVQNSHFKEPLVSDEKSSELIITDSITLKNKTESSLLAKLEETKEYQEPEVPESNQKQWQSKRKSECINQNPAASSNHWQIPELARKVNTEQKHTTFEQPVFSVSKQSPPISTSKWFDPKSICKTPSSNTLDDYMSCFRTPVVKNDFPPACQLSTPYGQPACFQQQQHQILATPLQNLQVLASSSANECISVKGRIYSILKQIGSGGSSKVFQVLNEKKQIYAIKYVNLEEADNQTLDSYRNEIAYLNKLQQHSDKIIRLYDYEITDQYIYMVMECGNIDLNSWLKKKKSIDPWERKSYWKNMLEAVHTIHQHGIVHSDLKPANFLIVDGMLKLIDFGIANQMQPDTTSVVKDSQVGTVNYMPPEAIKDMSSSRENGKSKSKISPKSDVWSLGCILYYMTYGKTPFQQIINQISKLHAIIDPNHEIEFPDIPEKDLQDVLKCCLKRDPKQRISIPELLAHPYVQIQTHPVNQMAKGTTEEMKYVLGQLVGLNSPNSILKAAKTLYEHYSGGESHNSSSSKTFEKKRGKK

On to `CCCCCS(=O)(=O)c1nc(-c2ccccc2)cn2c(-c3ccc(C(=O)NC4CC4)cc3)cnc12` [Example 18B, N-cyclopropyl-4-[8-(pentylsulfonyl)-6-phenylimidazo[1,2-a]pyrazin-3-yl]benzamide], for which the half-inhibitory concentration (IC50) turned out to be 7.5 nM. The same measure for `CCSc1nc(-c2ccccc2)cn2c(-c3ccc(C(=O)NC4CC4)cc3)cnc12` [Example 4, N-Cyclopropyl-4-[8-(ethylsulfanyl)-6-phenylimidazo[1,2-a]pyrazin-3-yl]benzamide]: 22.2 nM; for `O=C(NC1CC1)c1ccc(-c2cnc3c(SCc4ccco4)nc(-c4ccccc4)cn23)cc1` [Example 27, N-cyclopropyl-4-{8-[(2-furylmethyl)sulfanyl]-6-phenylimidazo[1,2-a]pyrazin-3-yl}benzamide]: 40.8 nM; for `O=C(NC1CC1)c1ccc(-c2cnc3c(S(=O)(=O)CCCCO)nc(-c4ccccc4)cn23)cc1` [Example 36, N-cyclopropyl-4-{8-[(4-hydroxybutyl)sulfonyl]-6-phenylimidazo[1,2-a]pyrazin-3-yl}benzamide]: 5.1 nM. Next, `CCCCS(=O)(=O)c1nc(-c2ccccc2)cn2c(-c3ccc(C(=O)NC4CC4)cc3)cnc12` [Example 9B, 4-[8-(Butylsulfonyl)-6-phenylimidazo[1,2-a]pyrazin-3-yl]-N-cyclopropylbenzamide]: 14 nM.

In the case of `CSc1nc(Br)cn2c(-c3ccc(C(=O)NC4CC4)cc3)cnc12` [Example 1, 4-[6-Bromo-8-(methylsulfanyl)imidazo[1,2-a]pyrazin-3-yl]-N-cyclopropylbenzamide], the 50% inhibitory concentration (IC50) is 607 nM. For the compound `O=C(NC1CC1)c1ccc(-c2cnc3c([S+]([O-])CC(F)(F)F)nc(-c4ccccc4)cn23)cc1` (racemic) [Example 26A, (RS) N-cyclopropyl-4-{6-phenyl-8-[(2,2,2-trifluoroethyl)sulfinyl]imidazo[1,2-a]pyrazin-3-yl}benzamide], the IC50 is 6.2 nM. Next, `O=C(NC1CC1)c1ccc(-c2cnc3c(SCC4CCCO4)nc(-c4ccccc4)cn23)cc1` (racemic) [Example 12, (RS) N-Cyclopropyl-4-{6-phenyl-8-[(tetrahydrofuran-2-ylmethyl)sulfanyl]imidazo[1,2-a]pyrazin-3-yl}benzamide]: 8 nM; `CC(C)CCS(=O)(=O)c1nc(-c2ccccc2)cn2c(-c3ccc(C(=O)NC4CC4)cc3)cnc12` [Example 24B, N-cyclopropyl-4-{8-[(3-methylbutyl)sulfonyl]-6-phenylimidazo[1,2-a]pyrazin-3-yl}benzamide]: 6.5 nM. Turning to `CC(C)(C)OC(=O)NCCSc1nc(-c2ccccc2)cn2c(-c3ccc(C(=O)NC4CC4)cc3)cnc12` [Example 16, tert-butyl [2-({3-[4-(cyclopropylcarbamoyl)phenyl]-6-phenylimidazo[1,2-a]pyrazin-8-yl}sulfanyl)ethyl]carbamate], the half-maximal inhibitory concentration (IC50) turned out to be 67.6 nM. Regarding `CS(=O)(=NC(=O)C(F)(F)F)c1nc(-c2ccccc2)cn2c(-c3ccc(C(=O)NC4CC4)cc3)cnc12` (racemic) [Example 15, (RS) N-cyclopropyl-4-{8-[S-methyl-N-(trifluoroacetyl)sulfonimidoyl]-6-phenylimidazo[1,2-a]pyrazin-3-yl}benzamide], the 50% inhibitory concentration (IC50) amounted to 5.2 nM. On to “(1R or 1S)-1-(4-{3-[4-(2-cyclopropyl-1H-imidazol-5-yl)phenyl]-8-(methylsulfanyl)imidazo[1,2-a]pyrazin-6-yl}phenyl)ethanol [Example 34B]”, for which the half-inhibitory concentration (IC50) was 58.2 nM. `CC(C)CCSc1nc(-c2ccccc2)cn2c(-c3ccc(C(=O)NC4CC4)cc3)cnc12` [Example 23, N-cyclopropyl-4-{8-[(3-methylbutyl)sulfanyl]-6-phenylimidazo[1,2-a]pyrazin-3-yl}benzamide]: the IC50 came out at 25.2 nM. With `CC(C)(C)CCSc1nc(-c2ccccc2)cn2c(-c3ccc(C(=O)NC4CC4)cc3)cnc12` [Example 10, N-Cyclopropyl-4-{8-[(3,3-dimethylbutyl)sulfanyl]-6-phenylimidazo[1,2-a]pyrazin-3-yl}benzamide], the concentration for half-maximal inhibition (IC50) was found to be 85.1 nM. As to `C[S+]([O-])c1nc(-c2ccccc2)cn2c(-c3ccc(C(=O)NC4CC4)cc3)cnc12` (racemic) [Example 3B, (RS)—N-cyclopropyl-4-[8-(methylsulfinyl)-6-phenylimidazo[1,2-a]pyrazin-3-yl]benzamide], the 50% inhibitory concentration (IC50) stood at 8.9 nM. The same measure for `CCCSc1nc(-c2ccccc2)cn2c(-c3ccc(C(=O)NC4CC4)cc3)cnc12` [Example 6, N-Cyclopropyl-4-[6-phenyl-8-(propylsulfanyl)imidazo[1,2-a]pyrazin-3-yl]benzamide]: 11 nM. Next, `CCCCCSc1nc(-c2ccccc2)cn2c(-c3ccc(C(=O)NC4CC4)cc3)cnc12` [Example 17, N-cyclopropyl-4-[8-(pentylsulfanyl)-6-phenylimidazo[1,2-a]pyrazin-3-yl]benzamide]: 79.8 nM; `O=C(NC1CC1)c1ccc(-c2cnc3c(S(=O)(=O)CC(F)(F)F)nc(-c4ccccc4)cn23)cc1` [Example 26B, N-cyclopropyl-4-{6-phenyl-8-[(2,2,2-trifluoroethyl)sulfonyl]imidazo[1,2-a]pyrazin-3-yl}benzamide]: 8.1 nM; `CC(C)S(=O)(=O)c1nc(-c2ccccc2)cn2c(-c3ccc(C(=O)NC4CC4)cc3)cnc12` [Example 20B, N-cyclopropyl-4-[8-(isopropylsulfonyl)-6-phenylimidazo[1,2-a]pyrazin-3-yl]benzamide]: 13.9 nM. Next, `O=C(NC1CC1)c1ccc(-c2cnc3c(SCCCCO)nc(-c4ccccc4)cn23)cc1` [Example 35, N-cyclopropyl-4-{8-[(4-hydroxybutyl)sulfanyl]-6-phenylimidazo[1,2-a]pyrazin-3-yl}benzamide]: 3.7 nM; `CC(C)CSc1nc(-c2ccccc2)cn2c(-c3ccc(C(=O)NC4CC4)cc3)cnc12` [Example 21, N-cyclopropyl-4-[8-(isobutylsulfanyl)-6-phenylimidazo[1,2-a]pyrazin-3-yl]benzamide]: 13.2 nM; `CCCS(=O)(=O)c1nc(-c2ccccc2)cn2c(-c3ccc(C(=O)NC4CC4)cc3)cnc12` [Example 7B, N-Cyclopropyl-4-[6-phenyl-8-(propylsulfonyl)imidazo[1,2-a]pyrazin-3-yl]benzamide]: 10.1 nM. As for `CSc1nc(-c2ccccc2)cn2c(-c3ccc(-c4cnc(C5CC5)[nH]4)cc3)cnc12` [Example 29, 3-[4-(2-cyclopropyl-1H-imidazol-5-yl)phenyl]-8-(methylsulfanyl)-6-phenylimidazo[1,2-a]pyrazine], the concentration for half-maximal inhibition (IC50) turned out to be 544 nM. As for `CSc1nc(-c2ccncc2)cn2c(-c3ccc(-c4cnc(C5CC5)[nH]4)cc3)cnc12` [Example 31, 3-[4-(2-cyclopropyl-1H-imidazol-5-yl)phenyl]-8-(methylsulfanyl)-6-(pyridin-4-yl)imidazo[1,2-a]pyrazine], the IC50 was determined as 125 nM.

`CC(C)Sc1nc(-c2ccccc2)cn2c(-c3ccc(C(=O)NC4CC4)cc3)cnc12` [Example 19, N-cyclopropyl-4-[8-(isopropylsulfanyl)-6-phenylimidazo[1,2-a]pyrazin-3-yl]benzamide]: the IC50 worked out at 22.3 nM. Take `O=C(NC1CC1)c1ccc(-c2cnc3c(SCC(F)(F)F)nc(-c4ccccc4)cn23)cc1` [Example 25, N-cyclopropyl-4-{6-phenyl-8-[(2,2,2-trifluoroethyl)sulfanyl]imidazo[1,2-a]pyrazin-3-yl}benzamide]: the concentration for half-maximal inhibition (IC50) was determined as 26.3 nM.
